The experiment deals with BDF1 mice, P388 leukemia ip, median survival T/C. Briefly: NCI In Vivo Anticancer Drug Screen. Data for tumor model P388 Leukemia (intraperitoneal) in B6D2F1 (BDF1) mice. The following applies: endpoint: median survival time, higher = longer survival. The procedure, abridged:
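Vehicle-dosed animals serve as the reference; survival of compound-dosed, tumour-implanted mice is divided by it.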

Setting [1] is: dose: 100.0 mg/kg/injection, schedule: Q01DX001 (ip), vehicle: Klucel (hydroxypropylcellulose) (HPC).
[2] abbreviates: dose: 200.0 mg/kg/injection, schedule: Q01DX001 (ip), vehicle: Klucel (hydroxypropylcellulose) (HPC).
The mark [3] stands for this setting: dose: 400.0 mg/kg/injection, schedule: Q01DX001 (ip), vehicle: Klucel (hydroxypropylcellulose) (HPC).
The mark [4] stands for this setting: dose: 25.0 mg/kg/injection, schedule: Q01DX009 (ip), vehicle: saline with Tween-80.
[5] abbreviates: dose: 50.0 mg/kg/injection, schedule: Q01DX009 (ip), vehicle: saline with Tween-80.
Setting [6] is: dose: 100.0 mg/kg/injection, schedule: Q01DX009 (ip), vehicle: saline with Tween-80.
Setting [7] is: dose: 100.0 mg/kg/injection, schedule: Q04DX003 (ip), vehicle: saline with Tween-80.
[8] abbreviates: dose: 200.0 mg/kg/injection, schedule: Q04DX003 (ip), vehicle: saline with Tween-80.
The mark [9] stands for this setting: dose: 400.0 mg/kg/injection, schedule: Q01DX009 (ip), vehicle: saline with Tween-80.
Where [10] appears, read: dose: 50.0 mg/kg/injection, schedule: Q01DX009 (ip), vehicle: saline.
Where [11] appears, read: dose: 100.0 mg/kg/injection, schedule: Q01DX009 (ip), vehicle: saline.
[12] abbreviates: dose: 25.0 mg/kg/injection, schedule: Q01DX009 (ip), vehicle: saline.
[13] abbreviates: dose: 100.0 mg/kg/injection, schedule: Q04DX003 (ip), vehicle: saline.

Values joined by “and” are separate entries in the source; they are usually repeats but may differ in a detail not shown here. Equal entries are not always repeated. Toxic doses and inconclusive results are not listed.

On to `ClC1=C(Cl)C2(Cl)C3COCC3C1(Cl)C2(Cl)Cl` (configuration not stated), for which the T/C runs as follows: under setting [1], 113 % of control; (dose: 100.0 mg/kg/injection, schedule: Q04DX003 (ip), vehicle: Klucel (hydroxypropylcellulose) (HPC)) 104 % of control; under setting [2], 113 % of control; (dose: 200.0 mg/kg/injection, schedule: Q04DX003 (ip), vehicle: Klucel (hydroxypropylcellulose) (HPC)) 100 % of control and 108 % of control; under setting [3], 104 % of control; (dose: 400.0 mg/kg/injection, schedule: Q04DX003 (ip), vehicle: Klucel (hydroxypropylcellulose) (HPC)) 100 % of control.

Turning to `C/C=C/c1ccc2ccc[n+](C)c2c1O`, the T/C was 100 % of control (dose: 22.0 mg/kg/injection, schedule: Q04DX003 (ip), vehicle: saline sonified); 110 % of control (dose: 25.0 mg/kg/injection, schedule: Q04DX003 (ip), vehicle: saline sonified); 113 % of control (dose: 33.0 mg/kg/injection, schedule: Q04DX003 (ip), vehicle: saline sonified); 118 % of control (dose: 75.0 mg/kg/injection, schedule: Q04DX003 (ip), vehicle: saline sonified).

Regarding `COc1ccc(C(CC(=O)c2ccc3c(c2)OCO3)c2c(O)c3ccccc3oc2=O)cc1OC` (configuration not stated), the T/C by setting is: under setting [4], 89 % of control; under setting [5], 91 % of control.

With `COc1ccc(C(CCl)(CCl)c2ccc(OC)c(C)c2)cc1C`, the T/C is 104 % of control under setting [6]; 91 % of control under setting [7]; 87 % of control under setting [8]; 100 % of control under setting [9]; 100 % of control (dose: 400.0 mg/kg/injection, schedule: Q04DX003 (ip), vehicle: saline with Tween-80).

As to `Cc1ccccc1OS(=O)(=O)C(F)(F)C(F)(F)C(F)(F)C(F)(F)F`, the T/C runs as follows: under setting [10], 100 % of control; under setting [11], 100 % of control; (dose: 200.0 mg/kg/injection, schedule: Q01DX009 (ip), vehicle: saline) 106 % of control.

With `Nc1c(C(=O)O)[nH]c(=O)[nH]c1=O`, the T/C under setting [5] was 113 % of control and the T/C under setting [6] was 219 % of control.

Regarding `NC(=S)N/N=C/c1ccccc1N`, the T/C was 104 % of control under setting [1], 104 % of control under setting [2] and 108 % of control under setting [3].

For the molecule `CCCCNC(C)(C)C(=O)c1cccs1`, the T/C is, setting by setting: under setting [12], 100 % of control; under setting [10], 100 % of control; (dose: 50.0 mg/kg/injection, schedule: Q04DX003 (ip), vehicle: saline) 100 % of control; under setting [11], 100 % of control; under setting [13], 118 % of control.

As for `CCCCNC(C)(C)C(SC(C)=O)c1ccc(Cl)cc1` (configuration not stated), the T/C reads like this: under setting [7], 108 % of control; under setting [8], 112 % of control.

For the molecule `CCOC(=O)c1[nH]cnc1/N=N/N(C)CCO`, the T/C (dose: 14.0 mg/kg/injection, schedule: Q01DX009 (ip), vehicle: saline) is 104 % of control; the T/C (dose: 21.0 mg/kg/injection, schedule: Q01DX009 (ip), vehicle: saline) is 100 % of control; the T/C (dose: 66.0 mg/kg/injection, schedule: Q01DX009 (ip), vehicle: saline) was 115 % of control; the T/C (dose: 264.0 mg/kg/injection, schedule: Q01DX009 (ip), vehicle: saline with Tween-80) was 113 % of control; the T/C (dose: 600.0 mg/kg/injection, schedule: Q01DX009 (ip), vehicle: saline with Tween-80) was 118 % of control; the T/C (dose: 600.0 mg/kg/injection, schedule: Q01DX009 (ip), vehicle: saline) is 163 % of control.

On to `COc1ccc(C2=NC(c3ccccc3)NC(c3ccccc3)/C2=C/c2ccccc2)cc1` (configuration not stated), for which the T/C is 106 % of control (dose: 6.25 mg/kg/injection, schedule: Q01DX009 (ip), vehicle: saline with Tween-80); 99 % of control (dose: 12.5 mg/kg/injection, schedule: Q01DX009 (ip), vehicle: saline with Tween-80); 99 % of control under setting [4]; 91 % of control and 94 % of control under setting [5]; 95 % of control under setting [6].

As to `C/C=C/C1=C(Cl)C(=O)[C@@H](Cl)[C@@]1(O)C(=O)OC`, the T/C is, setting by setting: (dose: 0.31 mg/kg/injection, schedule: Q01DX009 (ip), vehicle: saline with Tween-80) 106 % of control; (dose: 0.63 mg/kg/injection, schedule: Q01DX009 (ip), vehicle: saline with Tween-80) 115 % of control; (dose: 1.25 mg/kg/injection, schedule: Q01DX009 (ip), vehicle: saline with Tween-80) 106 % of control and 117 % of control; (dose: 2.5 mg/kg/injection, schedule: Q01DX001 (ip), vehicle: saline with Tween-80) 106 % of control; (dose: 2.5 mg/kg/injection, schedule: Q04DX003 (ip), vehicle: saline with Tween-80) 105 % of control; (dose: 4.4 mg/kg/injection, schedule: Q01DX009 (ip), vehicle: saline with Tween-80) 121 % of control. Further, the T/C is 101 % of control (dose: 5.0 mg/kg/injection, schedule: Q01DX001 (ip), vehicle: saline with Tween-80); 110 % of control (dose: 5.0 mg/kg/injection, schedule: Q04DX003 (ip), vehicle: saline with Tween-80); 122 % of control (dose: 6.6 mg/kg/injection, schedule: Q01DX009 (ip), vehicle: saline with Tween-80); 114 % of control (dose: 8.8 mg/kg/injection, schedule: Q01DX009 (ip), vehicle: saline with Tween-80); 108 % of control (dose: 10.0 mg/kg/injection, schedule: Q01DX001 (ip), vehicle: saline with Tween-80); 108 % of control (dose: 10.0 mg/kg/injection, schedule: Q04DX003 (ip), vehicle: saline with Tween-80). Also, the T/C was 123 % of control (dose: 13.3 mg/kg/injection, schedule: Q01DX009 (ip), vehicle: saline with Tween-80); 119 % of control (dose: 17.0 mg/kg/injection, schedule: Q01DX001 (ip), vehicle: saline with Tween-80); 112 % of control (dose: 20.0 mg/kg/injection, schedule: Q01DX001 (ip), vehicle: saline with Tween-80).

Regarding `C/C(Cc1ccccc1)=N/N(C)C`, the T/C by setting is: (dose: 25.0 mg/kg/injection, schedule: Q04DX003 (ip), vehicle: saline with Tween-80) 108 % of control; (dose: 50.0 mg/kg/injection, schedule: Q04DX003 (ip), vehicle: saline with Tween-80) 100 % of control; under setting [7], 104 % of control.

Turning to `CC1OC(OC2CCCc3c(O)c4c(c(O)c32)C(=O)c2ccccc2C4=O)CC(N)C1O` (configuration not stated), the T/C by setting is: (dose: 0.25 mg/kg/injection, schedule: Q01DX009 (ip), vehicle: water) 110 % of control; (dose: 0.5 mg/kg/injection, schedule: Q01DX009 (ip), vehicle: water) 105 % of control; (dose: 1.0 mg/kg/injection, schedule: Q01DX009 (ip), vehicle: water) 98 % of control; (dose: 2.0 mg/kg/injection, schedule: Q01DX009 (ip), vehicle: water) 110 % of control and 115 % of control; (dose: 4.0 mg/kg/injection, schedule: Q01DX009 (ip), vehicle: water) 108 % of control and 113 % of control; (dose: 8.0 mg/kg/injection, schedule: Q01DX009 (ip), vehicle: water) 108 % of control. The T/C (dose: 16.0 mg/kg/injection, schedule: Q01DX009 (ip), vehicle: water) is 105 % of control.

On to `CCCSc1ncnc2nc[nH]c12`, for which the T/C reads like this: (dose: 31.3 mg/kg/injection, schedule: Q01DX010 (ip), vehicle: saline) 95 % of control and 120 % of control; (dose: 62.5 mg/kg/injection, schedule: Q01DX010 (ip), vehicle: saline) 100 % of control and 105 % of control; (dose: 125.0 mg/kg/injection, schedule: Q01DX010 (ip), vehicle: saline) 95 % of control and 100 % of control.

On to `Cc1nc(Cl)c2cnccn12`, for which the T/C (dose: 12.5 mg/kg/injection, schedule: Q01DX009 (ip), vehicle: saline) was 100 % of control; the T/C under setting [12] was 95 % of control; the T/C under setting [10] was 86 % of control.

On to `Nc1nc(CNc2ccc(Cl)cc2)nc(Nc2ccccc2)n1`, for which the T/C is 105 % of control under setting [13]; 100 % of control (dose: 200.0 mg/kg/injection, schedule: Q04DX003 (ip), vehicle: saline); 100 % of control (dose: 400.0 mg/kg/injection, schedule: Q04DX003 (ip), vehicle: saline).

Take `CN(C(=O)/C=C/C(=O)O)c1ccccc1`: the T/C is 109 % of control under setting [4]; 109 % of control under setting [5]; 109 % of control under setting [6]; 113 % of control (dose: 200.0 mg/kg/injection, schedule: Q01DX009 (ip), vehicle: saline with Tween-80); 100 % of control under setting [9].

Values taken from PubChem BioAssay AID328 (DTP/NCI, 2004).
